Broadly, the melting point is the temperature of the solid-liquid transition.

Counter-ions that a name gives are not always drawn.

Consider `CCOC(=O)CCc1ccc(C(CC)(CC)NC(=O)c2cnn3c2NC(c2ccccc2)CC3(C)C)cc1` (stereo not drawn) [Example 759, ethyl 3-(4-(1-(((7,7-dimethyl-5-phenyl-4,5,6,7-tetrahydropyrazolo[1,5-a]pyrimidin-3-yl)carbonyl)amino)-1-ethylpropyl)phenyl)propanoate], for which the melting point lay in the range of 135 to 136 °C.

In turn, `CCC(CC)(c1ccccc1)c1nnc(-c2c(C)nn3c2N[C@@H](c2ccccc2)CC3(C)C)s1` [Example 1145, (5R)-3-(5-(1-ethyl-1-phenylpropyl)-1,3,4-thiadiazol-2-yl)-2,7,7-trimethyl-5-phenyl-4,5,6,7-tetrahydropyrazolo[1,5-a]pyrimidine] gave a melting point of 174 to 175 °C.

In turn, `O=C(c1cnn2c1NC(c1ccccc1)CC2C(F)(F)F)N1CCc2nn(-c3ccc(Cl)cc3)cc2C1` (stereo not drawn) [Example 275, 2-(4-chlorophenyl)-5-((5-phenyl-7-(trifluoromethyl)-4,5,6,7-tetrahydropyrazolo[1,5-a]pyrimidin-3-yl)carbonyl)-4,5,6,7-tetrahydro-2H-pyrazolo[4,3-c]pyridine] gave a melting point of 183 to 184 °C.

Regarding `CCC(CC)(NC(=O)c1cnn2c1NC(c1ccccc1Cl)CC2(C)C)c1ccc(C)cc1` (stereo not drawn) (as salt: HCl) [Example 961, 5-(2-chlorophenyl)-N-[1-ethyl-1-(4-methylphenyl)propyl]-7,7-dimethyl-4,5,6,7-tetrahydropyrazolo[1,5-a]pyrimidine-3-carboxamide], the melting point is 128 to 130 °C.

`O=C(O)c1cnn2c1NC(c1ccco1)CC2C(F)(F)F` (stereo not drawn) [Example 29, 5-(2-furyl)-7-(trifluoromethyl)-4,5,6,7-tetrahydropyrazolo[1,5-a]pyrimidine-3-carboxylic acid] came in with a melting point of 156 to 157 °C.

As to `CC1(C)CC(c2ccccc2)Nc2c(C(=O)NC3(CO)CCCCC3)cnn21` (stereo not drawn) [Example 644, N-(1-(hydroxymethyl)cyclo-hexyl)-7,7-dimethyl-5-phenyl-4,5,6,7-tetrahydropyrazolo[1,5-a]pyrimidine-3-carboxamide], the melting point fell in the range of 175 to 176 °C.

As to `CCC(CC)(NC(=O)c1cnn2c1NC(c1ccccc1)CC2(C)C)C(C)C` (stereo not drawn) [Example 620, N-(1,1-diethyl-2-methylpropyl)-7,7-dimethyl-5-phenyl-4,5,6,7-tetrahydropyrazolo[1,5-a]pyrimidine-3-carboxamide], the melting point was 155 to 156 °C.

Compound `CCC(CC)(NC(=O)c1c(C)nn2c1NC(c1ccccc1)CC2(C)C)c1ccccc1F` (stereo not drawn) (as salt: HCl) [Example 843, N-(1-ethyl-1-(2-fluorophenyl)propyl)-2,7,7-trimethyl-5-phenyl-4,5,6,7-tetrahydropyrazolo[1,5-a]pyrimidine-3-carboxamide] displayed a melting point of 180 to 182 °C.

On to `CCC(CC)(NC(=O)c1c(C)nn2c1NC(c1ccc(OC)cc1)CC2(C)C)c1ccc(C)cc1` (stereo not drawn) (as salt: HCl) [Example 967, N-(1-ethyl-1-(4-methylphenyl)propyl)-5-(4-methoxyphenyl)-2,7,7-trimethyl-4,5,6,7-tetrahydropyrazolo[1,5-a]pyrimidine-3-carboxamide], for which the melting point is 153 to 154 °C.

The compound `CC1(C)CC(c2ccccc2)Nc2c(C(=O)NC3(C#N)CCCCC3)cnn21` (stereo not drawn) [Example 627, N-(1-cyanocyclohexyl)-7,7-dimethyl-5-phenyl-4,5,6,7-tetrahydropyrazolo[1,5-a]pyrimidine-3-carboxamide] returned a melting point greater than 300 °C.

`CC(C)C(NC(=O)c1cnn2c1NC(c1ccccc1)CC2(C)C)C(C)C` (stereo not drawn) [Example 621, N-(1-isopropyl-2-methylpropyl)-7,7-dimethyl-5-phenyl-4,5,6,7-tetrahydropyrazolo[1,5-a]pyrimidine-3-carboxamide] displayed a melting point of 168 to 169 °C.

The compound `CCC(CC)(NC(=O)c1c(C)nn2c1NC(c1cccc(C)c1)CC2(C)C)c1ccc(C)cc1` (stereo not drawn) (as salt: HCl) [Example 974, N-(1-ethyl-1-(4-methylphenyl)propyl)-2,7,7-trimethyl-5-(3-methylphenyl)-4,5,6,7-tetrahydropyrazolo[1,5-a]pyrimidine-3-carboxamide] registered a melting point of 120 to 123 °C.

As to `CCC(CC)(NC(=O)c1c(C)nn2c1NC(c1ccccc1)CC2(C)C)c1ccc(N(C)C)cc1` (stereo not drawn) (as salt: HCl) [Example 821, N-(1-(4-(dimethylamino)phenyl)-1-ethylpropyl)-2,7,7-trimethyl-5-phenyl-4,5,6,7-tetrahydropyrazolo[1,5-a]pyrimidine-3-carboxamide], the melting point was 140 to 141 °C.

Take `Cc1nn2c(c1C(=O)O)NC(c1ccc(F)cc1)CC2(C)C` (stereo not drawn) [Example 948, 5-(4-fluorophenyl)-2,7,7-trimethyl-4,5,6,7-tetrahydropyrazolo[1,5-a]pyrimidine-3-carboxylic acid]: the melting point was 173 to 174 °C.

Consider `CCC1(CC)C[C@@H](O)CN1C(=O)c1c(C)nn2c1N[C@@H](c1ccccc1)CC2(C)C` (as salt: HCl) [Example 1098, (3R)-5,5-diethyl-1-(((5R)-2,7,7-trimethyl-5-phenyl-4,5,6,7-tetrahydropyrazolo[1,5-a]pyrimidin-3-yl)carbonyl)-3-pyrrolidinol], for which the melting point lay within 140 to 142 °C.

`CCC1(CC)C[C@H](O)CN1C(=O)c1cnn2c1N[C@@H](c1ccccc1)CC2(C)C` [Example 1117, (3S)-1-(((5R)-7,7-dimethyl-5-phenyl-4,5,6,7-tetrahydropyrazolo[1,5-a]pyrimidin-3-yl)carbonyl)-5,5-diethyl-3-pyrrolidinol]: the melting point lay within 249 to 251 °C.

On to `CCC(CC)(CCSC)NC(=O)c1cnn2c1NC(c1ccccc1)CC2(C)C` (stereo not drawn) [Example 665, N-(1,1-diethyl-3-(methylthio)propyl)-7,7-dimethyl-5-phenyl-4,5,6,7-tetrahydropyrazolo[1,5-a]pyrimidine-3-carboxamide], for which the melting point was in the range of 154 to 155 °C.

The compound `CCC(CC)(NC(=O)c1cnn2c1NC(c1ccccc1)CC2(C)C)c1cccc(Cl)c1` (stereo not drawn) [Example 614, N-(1-(3-chlorophenyl)-1-ethylpropyl)-7,7-dimethyl-5-phenyl-4,5,6,7-tetrahydropyrazolo[1,5-a]pyrimidine-3-carboxamide] yielded a melting point of 195 to 196 °C.

`CCC(CC)(NC(=O)c1cnn2c1NC(c1ccccc1)CC21CCCC1)c1ccc(C(F)(F)F)cc1` (stereo not drawn) [Example 191, N-(1-ethyl-1-(4-(trifluoromethyl)phenyl)propyl)-5′-phenyl-5′,6′-dihydro-4′H-spiro[cyclopentane-1,7′-pyrazolo[1,5-a]pyrimidine]-3′-carboxamide] registered a melting point of 205 to 207 °C.

Regarding `CCC(CC)(NC(=O)c1cnn2c1NC(c1ccccn1)CC2(C)C)c1ccc(F)cc1` (stereo not drawn) [Example 601, N-(1-ethyl-1-(4-fluorophenyl)propyl)-7,7-dimethyl-5-(2-pyridinyl)-4,5,6,7-tetrahydropyrazolo[1,5-a]pyrimidine-3-carboxamide], the melting point fell in the range of 167 to 169 °C.

As for `Cc1nn2c(c1C(=O)O)NC(c1cccs1)CC2(C)C` (stereo not drawn) [Example 951, 2,7,7-trimethyl-5-(2-thienyl)-4,5,6,7-tetrahydropyrazolo[1,5-a]pyrimidine-3-carboxylic acid], the melting point fell in the range of 186 to 187 °C.

Take `CCC(CC)(Cc1ccc(Cl)cc1)NC(=O)c1cnn2c1NC(c1ccccc1)CC2(C)C` (stereo not drawn) [Example 699, N-(1-(4-chlorobenzyl)-1-ethylpropyl)-7,7-dimethyl-5-phenyl-4,5,6,7-tetrahydropyrazolo[1,5-a]pyrimidine-3-carboxamide]: the melting point fell in the range of 156 to 157 °C.

With `CCC(CC)(NC(=O)c1cnn2c1NC(c1ccccc1)C1CCCCC12)c1ccc(C(F)(F)F)cc1` (stereo not drawn) [Example 201, N-(1-ethyl-1-(4-(trifluoromethyl)phenyl)propyl)-5-phenyl-4,5,5a,6,7,8,9,9a-octahydropyrazolo[1,5-a]quinazoline-3-carboxamide], the melting point lay in the range of 213 to 214 °C.

`CCC(C)(CC)NC(=O)c1cnn2c1NC(c1ccccc1)CC2(C)C` (stereo not drawn) [Example 618, N-(1-ethyl-1-methylpropyl)-7,7-dimethyl-5-phenyl-4,5,6,7-tetrahydropyrazolo[1,5-a]pyrimidine-3-carboxamide] yielded a melting point of 88 to 89 °C.

In turn, `CCOC(=O)CCCCOc1ccc(C(CC)(CC)NC(=O)c2cnn3c2NC(c2ccccc2)CC3(C)C)cc1` (stereo not drawn) [Example 817, ethyl 5-(4-(1-(((7,7-dimethyl-5-phenyl-4,5,6,7-tetrahydropyrazolo[1,5-a]pyrimidin-3-yl)carbonyl)amino)-1-ethyl-propyl)phenoxy)pentanoate] showed a melting point of 120 to 121 °C.

On to `CCC(CC)(NC(=O)c1cnn2c1NC(C1CCCCC1)CC2(C)C)c1ccc(C(F)(F)F)cc1` (stereo not drawn) [Example 676, 5-cyclohexyl-N-(1-ethyl-1-(4-(trifluoromethyl)phenyl)propyl)-7,7-dimethyl-4,5,6,7-tetrahydropyrazolo[1,5-a]pyrimidine-3-carboxamide], for which the melting point was in the range of 178.7 to 178.9 °C.

`O=C(NC1(C(=O)N2CCOCC2)CCCCC1)c1cnn2c1N[C@H](c1ccccc1)C[C@@H]2C(F)(F)F` [Example 370] had a melting point of 290 to 291 °C.

`O=C(NCc1ccc(-c2csnn2)cc1)c1cnn2c1NC(c1ccccc1)CC2C(F)(F)F` (stereo not drawn) [Example 278, 5-phenyl-N-(4-(1,2,3-thiadiazol-4-yl)benzyl)-7-(trifluoromethyl)-4,5,6,7-tetrahydropyrazolo[1,5-a]pyrimidine-3-carboxamide] showed a melting point of 205 to 206 °C.

The compound `CCC(CC)(NC(=O)c1cnn2c1NC(c1ccccc1)CC2(C)C)c1ccc(CCC(=O)OC)cc1` (stereo not drawn) [Example 748, methyl 3-(4-(1-(((7,7-dimethyl-5-phenyl-4,5,6,7-tetrahydropyrazolo[1,5-a]pyrimidin-3-yl)carbonyl)amino)-1-ethyl-propyl)phenyl)propanoate] came in with a melting point of 147 to 148 °C.

As for `CCc1ccc(C(CC)(CC)NC(=O)c2c(C)nn3c2N[C@@H](c2ccccc2F)CC3(C)C)cc1` (as salt: HCl) [Example 1089, (5R)-N-(1-ethyl-1-(4-ethylphenyl)propyl)-5-(2-fluorophenyl)-2,7,7-trimethyl-4,5,6,7-tetrahydropyrazolo[1,5-a]pyrimidine-3-carboxamide], the melting point was in the range of 138 to 139 °C.

Values taken from patent publication US9447100B2, “Substituted pyrazolo[1,5-A] pyrimidines as calcium receptor modulating agents” (Takeda Pharmaceutical Company Limited, priority 2002, dated 2016).
